Test results from BindingDB's records for doi:10.1021/jm960083n (Dupont Pharmaceuticals, 1996).

Target: T1, Dimer of Gag-Pol polyprotein [489-587] (Human immunodeficiency virus 1, UniProt P12497)
T1 construct: 489-587
Assay: Protease Inhibition Assay
Conditions: pH 5.5; 37 °C
Protocol: Inhibition of HIV protease was measured by assay of the cleavage of a fluorescent peptide substrate. The fluorescent product (2-aminobenzoyl-Ala-Thr-His-Gln-Val-Tyr) was separated from the fluorescent substrate by anion-exchange HPLC on a Mono-Q anion-exchange column (Pharmacia), and fluorescence was monitored at an excitation wavelength of 330 nm and an emission wavelength of 430 nm. Ki values for inhibitor binding were estimated at fixed concentrations of substrate and inhibitor from fractional activity measurements by use of the modified Michaelis-Menten equation.

Structure (SMILES) | Ki
COc1cc(C[C@@H]2[C@H](O)[C@@H](O)[C@@H](Cc3cc(OC)cc(OC)c3)N(Cc3cccc(C(C)=O)c3)C(=O)N2Cc2cccc(C(C)=O)c2)cc(OC)c1 [(4R,5S,6S,7R)-4,7-bis[(3,5-dimethoxyphenyl)methyl]-1,3-bis[(3-acetylphenyl)methyl]-5,6-dihydroxy-1,3-diazepan-2-one] | 0.4 nM
CC(=O)c1cccc(CN2C(=O)N(Cc3cccc(C(C)=O)c3)[C@H](Cc3ccc4c(c3)OCO4)[C@H](O)[C@@H](O)[C@H]2Cc2ccc3c(c2)OCO3)c1 [(4R,5S,6S,7R)-Hexahydro-5,6-dihydroxy-1,3-bis(3-acetylbenzyl)-4,7-bis((3,4-(methylenedioxy)phenyl)methyl)-2H-1,3-diazapin-2-one] | 0.043 nM
CC(=O)c1cccc(CN2C(=O)N(Cc3cccc(C(C)=O)c3)[C@H](Cc3ccc4c(c3)N(C)CCO4)[C@H](O)[C@@H](O)[C@H]2Cc2ccc3c(c2)N(C)CCO3)c1 [(4R,5S,6S,7R)-Hexahydro-5,6-dihydroxy-1,3-bis(3-acetylbenzyl)-4,7-bis((4-methyl-3,4-dihydro-2H-benzo[b][1,4]-oxazin-6-yl)methyl)-2H-1,3-diazapin-2-one] | 0.08 nM
CC(=O)c1cc(CN2C(=O)N(Cc3ccc(F)c(C(C)=O)c3)[C@H](Cc3ccc4c(c3)OCO4)[C@H](O)[C@@H](O)[C@H]2Cc2ccc3c(c2)OCO3)ccc1F [(4R,5S,6S,7R)-Hexahydro-5,6-dihydroxy-1,3-bis(4-fluoro-3-acetylbenzyl)-4,7-bis((3,4-(methylenedioxy)phenyl)methyl)-2H-1,3-diazapin-2-one] | 1.5 nM
